This note sets out measurements from patent publication US8173638B2 (Boehringer Ingelheim International GmbH, priority 2006, dated 2012).

Structures are written as SMILES.

This assay deals with T1, human CB2R (Homo sapiens, UniProt P34972).
T1 construct: host or cells: CHO cells
T1 sequence (P34972 whole entry): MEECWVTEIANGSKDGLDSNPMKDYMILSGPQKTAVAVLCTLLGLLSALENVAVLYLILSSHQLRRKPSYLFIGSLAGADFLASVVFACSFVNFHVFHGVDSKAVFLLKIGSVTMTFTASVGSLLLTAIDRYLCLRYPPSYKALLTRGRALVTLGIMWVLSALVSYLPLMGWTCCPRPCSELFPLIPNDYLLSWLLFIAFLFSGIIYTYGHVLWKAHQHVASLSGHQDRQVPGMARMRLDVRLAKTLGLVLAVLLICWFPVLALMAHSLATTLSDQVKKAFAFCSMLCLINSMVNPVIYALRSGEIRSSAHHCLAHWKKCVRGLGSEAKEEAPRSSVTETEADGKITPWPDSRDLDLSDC
The experiment in a line: CB2R mediated modulation of cAMP synthesis. As to conditions: found through the use of the described assays (CB2 agonists); qualitative statement. The format is cell-based. The method, boiled down: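 Forskolin (10 uM)-driven cAMP in human CB2R-expressing CHO cells, read with DiscoverX-XS kit after 30 min compound exposure at 37 °C, 1 mM IBMX, 0.25% BSA. 100% defined as forskolin cAMP relative to 1 uM CP55940 inhibition. Agonist EC50 via four-parameter logistic model.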
In the case of `Cc1ccc(C(=O)N2CCCN(C(=O)Nc3ccc(C(C)(C)C)cc3)CC2)cc1` [4-(4-Methyl-benzoyl)-[1,4]diazepane-1-carboxylic acid (4-tert-butyl-phenyl)-amide], the agonistic activity result is “agonistic activity”. Then `Cc1ccc(C(=O)N2CCCN(C(=O)Nc3ccc4ccccc4c3)CC2)cc1` [4-(4-Methyl-benzoyl)-[1,4]diazepane-1-carboxylic acid naphthalen-2-ylamide], with “agonistic activity”. Then `CCCCc1ccc(NC(=O)N2CCCN(C(=O)CCC(C)C)CC2)cc1` [4-(4-Methyl-pentanoyl)-[1,4]diazepane-1-carboxylic acid (4-butyl-phenyl)-amide], with “agonistic activity”; and `CC(C)CCC(=O)N1CCCN(C(=O)Nc2ccc(C(C)C)cc2)CC1` [4-(4-Methyl-pentanoyl)-[1,4]diazepane-1-carboxylic acid (4-isopropyl-phenyl)-amide], with “agonistic activity”; and `CC(C)CCC(=O)N1CCCN(C(=O)Nc2ccc3ccccc3c2)CC1` [4-(4-Methyl-pentanoyl)-[1,4]diazepane-1-carboxylic acid naphthalen-2-ylamide], with “agonistic activity”.

As for `CC(C)(C)c1cc(NC(=O)N2CCCN(C(=O)C3CCC(=O)CC3)CC2)no1` [4-(4-Oxo-cyclohexanecarbonyl)-[1,4]diazepane-1-carboxylic acid (5-tert-butyl-isoxazol-3-yl)-amide], the agonistic activity entry is “agonistic activity”. Then `CC(C)(C)c1cc(NC(=O)N2CCCN(C(=O)c3ccc(C(F)(F)F)cc3)CC2)no1` [4-(4-Trifluoromethyl-benzoyl)-[1,4]diazepane-1-carboxylic acid (5-tert-butyl-isoxazol-3-yl)-amide], with “agonistic activity”; and `O=C(Nc1ccc2ccccc2c1)N1CCCN(C(=O)c2ccc(C(F)(F)F)cc2)CC1` [4-(4-Trifluoromethyl-benzoyl)-[1,4]diazepane-1-carboxylic acid naphthalen-2-ylamide], with “agonistic activity”. With `C[C@@H]1CN(C(=O)N2CCCN(C(=O)Nc3cc(C(C)(C)C)on3)CC2)C[C@H](C)O1` [4-((2R,6S)-2,6-Dimethyl-morpholine-4-carbonyl)-[1,4]diazepane-1-carboxylic acid (5-tert-butyl-isoxazol-3-yl)-amide] the entry was “agonistic activity”; with `O=C(Nc1cc(-c2ccccc2)no1)N1CCCN(C(=O)N2CCOCC2)CC1` [4-(Morpholine-4-carbonyl)-[1,4]diazepane-1-carboxylic acid (3-phenyl-isoxazol-5-yl)-amide], “agonistic activity”.

With `CCC(C)c1cc(NC(=O)N2CCCN(C(=O)N3CCOCC3)CC2)on1` (stereo not drawn) [4-(Morpholine-4-carbonyl)-[1,4]diazepane-1-carboxylic acid (3-sec-butyl-isoxazol-5-yl)-amide], the agonistic activity result is on record as “agonistic activity”.

For `CC(C)(C)c1cc(NC(=O)N2CCCN(C(=O)N3CCOCC3)CC2)on1` [4-(Morpholine-4-carbonyl)-[1,4]diazepane-1-carboxylic acid (3-tert-butyl-isoxazol-5-yl)-amide], the agonistic activity entry is recorded as “agonistic activity”. With `O=C(Nc1nc(-c2ccccc2)cs1)N1CCCN(C(=O)N2CCOCC2)CC1` [4-(Morpholine-4-carbonyl)-[1,4]diazepane-1-carboxylic acid (4-phenyl-thiazol-2-yl)-amide] the entry was “agonistic activity”. For `CCC(C)c1ccc(NC(=O)N2CCCN(C(=O)N3CCOCC3)CC2)cc1` (stereo not drawn) [4-(Morpholine-4-carbonyl)-[1,4]diazepane-1-carboxylic acid (4-sec-butyl-phenyl)-amide], the agonistic activity result is on record as “agonistic activity”.

As for `CC(C)(C)c1cc(NC(=O)N2CCCN(C(=O)N3CCCCC3)CC2)no1` [4-(Piperidine-1-carbonyl)-[1,4]diazepane-1-carboxylic acid (5-tert-butyl-isoxazol-3-yl)-amide], the agonistic activity entry is “agonistic activity”.
